Results published in US11472830B2, “Cyclic dinucleotides as sting agonists” (Janssen Biotech, Inc., priority 2016, dated 2022).
pEC50, pIC50: −log10 of the molar value.

system: human STING pathway in THP1-ISG cells; assay: STING human cell reporter assay; type: cell-based; settings: 24 h, mean of at least three values
Description: STING Human Cell Reporter Assay
Agonism of the human STING pathway is assessed in THP1-ISG cells (Invivogen, cat #thp-isg) derived from human THP1 monocyte cell line by stable integration of an interferon regulatory factor (IRF)-inducible SEAP reporter construct. THP1-Blue ISG cells express a secreted embryonic alkaline phosphatase (SEAP) reporter gene under the control of an ISG54 minimal promoter in conjunction with five interferon (IFN)-stimulated response elements. As a result, THP1-Blue ISG cells allow the monitoring of IRF activation by determining the activity of SEAP. The levels of IRF-induced SEAP in the cell culture supernatant are readily assessed with alkaline phosphatase detection medium, a SEAP detection reagent. These cells are resistant to Zeocin. […] To run the assay, 60,000 cells were dispensed in 30 μL/well of a white, opaque bottom tissue culture treated 384-well plate.
Test compounds were added in a volume of 10 μL (1% DMSO final concentration). Compounds are initially prepared in 100% DMSO, spotted on an intermediate dilution plate and then diluted in media prior to transfer. The assay was incubated for 24 h at 37 °C, 5% CO2 then plates were centrifuged at 1200 rpm (120× g) for 5 min. After final incubation, 90 μL of alkaline phosphatase detection medium-substrate was added to each well of a new 384-well clear plate and 10 μL of the cell supernatant was transferred from the assay plate to the new alkaline phosphatase detection medium-plate using a Biomek FX and mixed 4 times.

In order of falling pEC50:
1. Nc1nc2c(ncn2C2OC3CO[P@@](=O)(S)OC4C(CO[P@@](=O)(S)OC2C3O)OC(n2cnc3c(N)ncnc32)C4F)c(=O)[nH]1 (single isomer, unassigned) [Compound 4]  7.05
2. B[P@@]1(=O)OCC2OC(n3cnc4c(=O)[nH]c(N)nc43)C(O[P@](B)(=O)OCC3OC(n4cnc5c(N)ncnc54)C(O)C3O1)C2O (single isomer, unassigned) [Compound 8]  6.96
3. Nc1nc2c(ncn2C2OC3COP(=O)(O)OC4C5OCC4(COP(=O)(O)OC2C3O)OC5n2cnc3c(N)ncnc32)c(=O)[nH]1 (stereo not drawn) [Compound 6]  6.92
4. Nc1nc2c(ncn2C2OC3CO[P@](=O)(S)OC4C(CO[P@](=O)(S)OC2C3O)OC(n2cnc3c(N)ncnc32)C4F)c(=O)[nH]1 (single isomer, unassigned) [Compound 5]  6.80
5. B[P@]1(=O)OCC2OC(n3cnc4c(=O)[nH]c(N)nc43)C(O[P@@](B)(=O)OCC3OC(n4cnc5c(N)ncnc54)C(F)C3O1)C2OC (single isomer, unassigned) [Compound 12]  6.66
6. B[P@]1(=O)OCC2OC(n3cnc4c(N)ncnc43)C(F)C2O[P@@](=O)(S)OCC2OC(n3cnc4c(=O)[nH]c(N)nc43)C(O1)C2OC (single isomer, unassigned) [Compound 14]  6.35
7. B[P@@]1(=O)OCC2OC(n3cnc4c(=O)[nH]c(N)nc43)C(O[P@](B)(=O)OCC3OC(n4cnc5c(N)ncnc54)C(F)C3O1)C2OC (single isomer, unassigned) [Compound 11]  6.31
8. B[P@]1(=O)OCC2OC(n3cnc4c(=O)[nH]c(N)nc43)C(O[P@](=O)(S)OCC3OC(n4cnc5c(N)ncnc54)C(F)C3O1)C2OC (single isomer, unassigned) [Compound 10]  6.27
9. B[P@@]1(=O)OCC2OC(n3cnc4c(N)ncnc43)C(F)C2O[P@](=O)(S)OCC2OC(n3cnc4c(=O)[nH]c(N)nc43)C(O1)C2OC (single isomer, unassigned) [Compound 13]  6.23
10. B[P@@]1(=O)OCC2OC(n3cnc4c(=O)[nH]c(N)nc43)C(O[P@](=O)(S)OCC3OC(n4cnc5c(N)ncnc54)C(F)C3O1)C2OC (single isomer, unassigned) [Compound 9]  6.19
11. B[P@]1(=O)OCC2OC(n3cnc4c(=O)[nH]c(N)nc43)C(O[P@@](B)(=O)OCC3OC(n4cnc5c(N)ncnc54)C(O)C3O1)C2O (single isomer, unassigned) [Compound 7]  5.95

target: STING (Homo sapiens, UniProt Q86WV6, H232R); assay: STING SPA binding assay; settings: displacement of [3H]-2′3′-cGAMP; mean of at least three values; read-out: hSTING SPA IC50
Description: The HIS tag is cleaved after purification and prior to biotinylation.
Test compounds (80 nL) were added with an acoustic dispenser (EDC Biosystems) in 100% DMSO for a final assay concentration of 1% DMSO. Plates were centrifuged for 1 min and incubated for 60 min at room temperature. Finally, (2 μL) polystyrene streptavidin SPA beads (PerkinElmer RPNQ0306) were added and plates were sealed and centrifuged for 1 min at room temperature. Plates were dark adapted for 2 h and read on a ViewLux (Perkin Elmer) for 12 min per plate.

Sequence of STING (Q86WV6 139-379 H232R): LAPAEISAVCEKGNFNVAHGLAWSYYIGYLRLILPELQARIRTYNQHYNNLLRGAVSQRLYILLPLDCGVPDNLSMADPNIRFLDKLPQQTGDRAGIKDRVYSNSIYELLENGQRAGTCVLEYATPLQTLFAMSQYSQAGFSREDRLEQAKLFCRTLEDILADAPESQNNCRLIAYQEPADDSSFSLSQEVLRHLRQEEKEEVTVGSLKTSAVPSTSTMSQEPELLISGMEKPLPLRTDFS

`B[P@]1(=O)OCC2OC(n3cnc4c(=O)[nH]c(N)nc43)C(O[P@@](B)(=O)OCC3OC(n4cnc5c(N)ncnc54)C(F)C3O1)C2OC` (single isomer, unassigned) [Compound 12] and `B[P@@]1(=O)OCC2OC(n3cnc4c(=O)[nH]c(N)nc43)C(O[P@](B)(=O)OCC3OC(n4cnc5c(N)ncnc54)C(F)C3O1)C2OC` (single isomer, unassigned) [Compound 11] cannot be ordered by pIC50: over 8.00 for the first, over 8.00 for the second.

system: IFN-β secretion in THP1-Blue ISG cells; assay: Human interferon-β induction assay; type: cell-based; settings: total cumulative IFN-β induction over the dose range tested (0.78 to 50 uM) in THP-1 cells
Description: Human Interferon-β Induction Assay
THP1-Blue ISG cells are used to measure the secretion of IFN-β into the culture supernatant following STING pathway activation. To run the assay, anti-IFN-β capture antibodies were coated on 96 well MultiArray plates (Mesoscale Discovery). After a one hour incubation, plates were washed and 50 μL supernatant from the STING human cell reporter assay plates or IFN-β standards were mixed with 20 μL Sulfotag-conjugated detection antibody in the coated plates. Plates were incubated, shaking for 2 h, washed, and read buffer was applied. Electrochemiluminescence was measured on the Sectorlmager.

In order of falling “human IFN-β (ranking value)” value:
1. B[P@]1(=O)OCC2OC(n3cnc4c(N)ncnc43)C(F)C2O[P@@](=O)(S)OCC2OC(n3cnc4c(=O)[nH]c(N)nc43)C(O1)C2OC (single isomer, unassigned) [Compound 14]  4964
2. B[P@]1(=O)OCC2OC(n3cnc4c(=O)[nH]c(N)nc43)C(O[P@@](B)(=O)OCC3OC(n4cnc5c(N)ncnc54)C(F)C3O1)C2OC (single isomer, unassigned) [Compound 12]  3860
3. B[P@@]1(=O)OCC2OC(n3cnc4c(=O)[nH]c(N)nc43)C(O[P@](B)(=O)OCC3OC(n4cnc5c(N)ncnc54)C(F)C3O1)C2OC (single isomer, unassigned) [Compound 11]  3840
4. B[P@@]1(=O)OCC2OC(n3cnc4c(N)ncnc43)C(F)C2O[P@](=O)(S)OCC2OC(n3cnc4c(=O)[nH]c(N)nc43)C(O1)C2OC (single isomer, unassigned) [Compound 13]  2900
5. Nc1nc2c(ncn2C2OC3CO[P@](=O)(S)OC4C(CO[P@](=O)(S)OC2C3O)OC(n2cnc3c(N)ncnc32)C4F)c(=O)[nH]1 (single isomer, unassigned) [Compound 5]  2737
6. B[P@]1(=O)OCC2OC(n3cnc4c(=O)[nH]c(N)nc43)C(O[P@@](B)(=O)OCC3OC(n4cnc5c(N)ncnc54)C(O)C3O1)C2O (single isomer, unassigned) [Compound 7]  2260
7. Nc1nc2c(ncn2C2OC3CO[P@@](=O)(S)OC4C(CO[P@@](=O)(S)OC2C3O)OC(n2cnc3c(N)ncnc32)C4F)c(=O)[nH]1 (single isomer, unassigned) [Compound 4]  2247
8. B[P@@]1(=O)OCC2OC(n3cnc4c(=O)[nH]c(N)nc43)C(O[P@](=O)(S)OCC3OC(n4cnc5c(N)ncnc54)C(F)C3O1)C2OC (single isomer, unassigned) [Compound 9]  2240
9. B[P@@]1(=O)OCC2OC(n3cnc4c(=O)[nH]c(N)nc43)C(O[P@](B)(=O)OCC3OC(n4cnc5c(N)ncnc54)C(O)C3O1)C2O (single isomer, unassigned) [Compound 8]  2054
10. B[P@]1(=O)OCC2OC(n3cnc4c(=O)[nH]c(N)nc43)C(O[P@](=O)(S)OCC3OC(n4cnc5c(N)ncnc54)C(F)C3O1)C2OC (single isomer, unassigned) [Compound 10]  1321
11. Nc1nc2c(ncn2C2OC3COP(=O)(O)OC4C5OCC4(COP(=O)(O)OC2C3O)OC5n2cnc3c(N)ncnc32)c(=O)[nH]1 (stereo not drawn) [Compound 6]  27

system: CT26 colon carcinoma tumor; assay: STING in vivo activity, mouse CT26 tumor model; settings: CT26 tumor in Balb/c mice, 0.05 mg intratumorally every three days, three doses
Description: For all studies, female Balb/c mice were obtained from Charles River Labs (Wilmington, Mass.) and used when they were 6-8 weeks of age and weighed approximately 20 g. All animals were allowed to acclimate and recover from any shipping-related stress for a minimum of 5 days prior to experimental use. Reverse osmosis chlorinated water and irradiated food (Laboratory Autoclavable Rodent Diet 5010, Lab Diet) were provided ad libitum, and the animals were maintained on a 12 h light and dark cycle. Cages and bedding were autoclaved before use and changed weekly. All experiments were carried out in accordance with The Guide for the Care and Use of Laboratory Animals and were approved by the Institutional Animal Care and Use Committee of Janssen R & D, Spring House, Pa. Each experimental group contained 8 mice. In vivo efficacy in a mouse CT26 tumor model was determined by implanting 500,000 CT26 colon carcinoma tumor cells subcutaneously into Balb/c mice and allowing tumors to establish to 100-300 mm^3. Compounds were injected intratumorally formulated in phosphate buffered saline in a volume of 0.1 ml per injection. Mice were administered 0.05 mg every three days for a total of three doses. Efficacy was measured as the percent tumor growth inhibition (TGI) calculated by the reduction in size of the Treated tumor volume (T) over the Control tumor volume (C) according to the following formula: ((C−T)/(C))*100 when all control animals were still on study. Cures were defined as the number of animals with no measurable tumor detected 10 tumor volume doubling times (TVDT) after the last dose was administered.

In order of rising “In vivo activity (% TGI)” value:
1. Nc1nc2c(ncn2C2OC3COP(=O)(O)OC4C5OCC4(COP(=O)(O)OC2C3O)OC5n2cnc3c(N)ncnc32)c(=O)[nH]1 (stereo not drawn) [Compound 6]  73.9%
2. B[P@@]1(=O)OCC2OC(n3cnc4c(=O)[nH]c(N)nc43)C(O[P@](=O)(S)OCC3OC(n4cnc5c(N)ncnc54)C(F)C3O1)C2OC (single isomer, unassigned) [Compound 9]  89.8%
3. Nc1nc2c(ncn2C2OC3CO[P@](=O)(S)OC4C(CO[P@](=O)(S)OC2C3O)OC(n2cnc3c(N)ncnc32)C4F)c(=O)[nH]1 (single isomer, unassigned) [Compound 5]  93.3%
4. Nc1nc2c(ncn2C2OC3CO[P@@](=O)(S)OC4C(CO[P@@](=O)(S)OC2C3O)OC(n2cnc3c(N)ncnc32)C4F)c(=O)[nH]1 (single isomer, unassigned) [Compound 4]  93.7%
5. B[P@]1(=O)OCC2OC(n3cnc4c(=O)[nH]c(N)nc43)C(O[P@@](B)(=O)OCC3OC(n4cnc5c(N)ncnc54)C(O)C3O1)C2O (single isomer, unassigned) [Compound 7]  94.3%
6. B[P@@]1(=O)OCC2OC(n3cnc4c(=O)[nH]c(N)nc43)C(O[P@](B)(=O)OCC3OC(n4cnc5c(N)ncnc54)C(O)C3O1)C2O (single isomer, unassigned) [Compound 8]  95.3%

same assay, conditions: CT26 tumor in Balb/c mice, 0.05 mg intratumorally every three days, three doses; animals with no measurable tumor of 8

In the case of `Nc1nc2c(ncn2C2OC3COP(=O)(O)OC4C5OCC4(COP(=O)(O)OC2C3O)OC5n2cnc3c(N)ncnc32)c(=O)[nH]1` (stereo not drawn) [Compound 6], the “In vivo activity (cures)” value was 1/8.
`Nc1nc2c(ncn2C2OC3CO[P@](=O)(S)OC4C(CO[P@](=O)(S)OC2C3O)OC(n2cnc3c(N)ncnc32)C4F)c(=O)[nH]1` (single isomer, unassigned) [Compound 5] was tested, and the “In vivo activity (cures)” value was 7/8.
In the case of `B[P@]1(=O)OCC2OC(n3cnc4c(=O)[nH]c(N)nc43)C(O[P@@](B)(=O)OCC3OC(n4cnc5c(N)ncnc54)C(O)C3O1)C2O` (single isomer, unassigned) [Compound 7], the “In vivo activity (cures)” value was 5/8.
With `B[P@@]1(=O)OCC2OC(n3cnc4c(=O)[nH]c(N)nc43)C(O[P@](B)(=O)OCC3OC(n4cnc5c(N)ncnc54)C(O)C3O1)C2O` (single isomer, unassigned) [Compound 8] the “In vivo activity (cures)” value was 4/8.
With `Nc1nc2c(ncn2C2OC3CO[P@@](=O)(S)OC4C(CO[P@@](=O)(S)OC2C3O)OC(n2cnc3c(N)ncnc32)C4F)c(=O)[nH]1` (single isomer, unassigned) [Compound 4] the “In vivo activity (cures)” value was 6/8.

system: HBV infected PHH cells; assay: Suppression of HBV virus in PHH cells using conditioned media from STING activated primary human PBMC; type: cell-based, hepatitis B virus; settings: conditioned media from PBMCs stimulated at 20, 4, 0.8 μM for 48 h, 1:1 on HBV infected PHH cells; HBsAg 8 days later; two donors; read-out: EC50 (HBsAg production)
Excerpt: Suppression of HBV Virus in PHH Cells Using Conditioned Media from STING Activated Primary Human PBMC
Primary human hepatocytes can be infected with hepatitis B virus and during an established infection, will produce viral proteins such as HBsAg and HBeAg that can be detected by ELISA. Therapeutic treatment with compounds such as entecavir can suppress HBV reproduction, which can be measured by decreased viral protein production. (# of cells) 4×10^5 cells/well primary human hepatocytes (BioReclamation, Westbury, N.Y.) were dispensed into 500 μL/well of flat-bottom, tissue culture treated, 24-well plates. 24 h later, cells were infected with 30-75 moi of HBV. On the next day, the PHH were washed 3× and fresh maintenance media was added to the cells. Concurrently, PBMC were isolated as described previously. To stimulate the PBMC, 10,000,000 cells were dispensed into 400 μL/well of flat-bottom, tissue culture treated, 24-well plates. […] Cells were measured for activation marker upregulation using flow cytometery. […] Samples were analyzed on an Attune NxT flow cytometer (Thermo Fisher, Carlsbad, Calif.)
From the stimulated PBMC cultures, a portion of supernatant was reserved for cytokine detection by Luminex, as described previously. […] Following 96 h, the media was collected and HBsAg was measured.

`B[P@]1(=O)OCC2OC(n3cnc4c(=O)[nH]c(N)nc43)C(O[P@@](B)(=O)OCC3OC(n4cnc5c(N)ncnc54)C(O)C3O1)C2O` (single isomer, unassigned) [Compound 7] gave a pEC50 of 10.07.
